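Five compound concentrations were applied to cells in 96-well plates for 48 hours; endpoints were derived by simple linear interpolation of the resulting dose-response curve. GI50: concentration for 50% inhibition of growth. TGI: concentration producing complete growth inhibition.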

Some test systems named below: CAKI-1 renal; COLO 205 colon; MALME-3M melanoma; NCI/ADR-RES ovarian; OVCAR-4 ovarian; PC-3 prostate; SK-MEL-28 melanoma; SK-OV-3 ovarian; SR leukemia; K-562 leukemia.
What all share (test): NCI anticancer screen, dose series, 48 h

`COc1cc(C(=O)Oc2ccc3c(c2)OCO3)cc(OC)c1OC`: the TGI in the assay on CAKI-1 renal, in the assay on COLO 205 colon, with MALME-3M melanoma, with NCI/ADR-RES ovarian, in the assay with OVCAR-4 ovarian and in the assay on PC-3 prostate was > 100 µM throughout. The TGI in the assay on SK-MEL-28 melanoma, with SK-OV-3 ovarian and with SR leukemia was > 100 µM each time.

For the molecule `COc1cc(CC(C)NC(C)=O)cc(OC)c1` (stereo not drawn), the TGI with CAKI-1 renal, in the assay on COLO 205 colon, in the assay on K-562 leukemia, with MALME-3M melanoma, in the assay on NCI/ADR-RES ovarian and in the assay on PC-3 prostate was > 100 µM each time. For the same molecule, the TGI with SK-MEL-28 melanoma, in the assay with SK-OV-3 ovarian and in the assay with SR leukemia was > 100 µM each time.

On to `O=C1NC2CCCCC2N=C1CC(=O)c1ccc(Br)cc1` (stereo not drawn), for which the TGI with CAKI-1 renal, with COLO 205 colon, with K-562 leukemia, in the assay with MALME-3M melanoma, in the assay with NCI/ADR-RES ovarian and with PC-3 prostate was > 100 µM throughout. Besides, the TGI in the assay on SK-MEL-28 melanoma, with SK-OV-3 ovarian and with SR leukemia was > 100 µM throughout.

`CC1CCC2(NC1)OC1CC3C4CC=C5CC(OC6OC(CO)C(OC7OC(C)C(O)C(O)C7O)C(O)C6OC6OC(C)C(O)C(O)C6O)CCC5(C)C4CCC3(C)C1C2C` (stereo not drawn): the TGI in the assay with CAKI-1 renal was 8.66 µM; with COLO 205 colon it was 35.4 µM; with K-562 leukemia, 28.7 µM; with MALME-3M melanoma, 9.23 µM; in the assay with OVCAR-4 ovarian, 7.27 µM; in the assay on PC-3 prostate it was 4.28 µM. Further, the TGI with SK-MEL-28 melanoma was determined as 4.41 µM; with SK-OV-3 ovarian it was 19.5 µM; with SR leukemia it was 27.8 µM.

On to `N#C/C(C(=O)Nc1ccc(Cl)cc1)=C(/N)N1CCCC1`, for which the TGI with CAKI-1 renal, in the assay on COLO 205 colon, in the assay with K-562 leukemia, in the assay on NCI/ADR-RES ovarian, with PC-3 prostate and with SK-MEL-28 melanoma was > 100 µM in each case. Besides, the TGI with SK-OV-3 ovarian and in the assay on SR leukemia was > 100 µM each time.

As to `CC[C@H](Nc1nc(C)nc(N)c1C#N)c1nc2cccc(NCc3ccc(C(=O)NO)cc3)c2c(=O)n1-c1ccccc1`, the GI50 with CAKI-1 renal is 1.76 µM; with COLO 205 colon it was 1.74 µM; with K-562 leukemia it was 2.2 µM; in the assay with MALME-3M melanoma, 1.48 µM; with NCI/ADR-RES ovarian, 1.99 µM; in the assay on OVCAR-4 ovarian, 2.74 µM. The GI50 in the assay on PC-3 prostate is 1.47 µM; in the assay on SK-MEL-28 melanoma, 1.6 µM; in the assay with SK-OV-3 ovarian, 1.65 µM. For the same molecule, the TGI is 3.68 µM with CAKI-1 renal; 3.8 µM in the assay on COLO 205 colon; > 100 µM with K-562 leukemia; 4.05 µM in the assay on MALME-3M melanoma; 4.69 µM with NCI/ADR-RES ovarian; 14.6 µM with OVCAR-4 ovarian. Also, the TGI worked out at 4.04 µM in the assay on PC-3 prostate, 3.28 µM in the assay on SK-MEL-28 melanoma and 3.13 µM in the assay with SK-OV-3 ovarian.

As to `C1=C2C3=[N+](CCCCC3)CC2Cc2ccsc21` (stereo not drawn), the TGI in the assay on CAKI-1 renal, in the assay with COLO 205 colon, in the assay on K-562 leukemia, with MALME-3M melanoma, with NCI/ADR-RES ovarian and in the assay on OVCAR-4 ovarian was > 100 µM each time. The TGI in the assay with PC-3 prostate, with SK-MEL-28 melanoma and in the assay with SK-OV-3 ovarian was > 100 µM in each case.

Consider `Cc1cc2ncn(C3CCCCO3)c2cc1C` (stereo not drawn), for which the TGI in the assay with CAKI-1 renal, in the assay on COLO 205 colon, in the assay on K-562 leukemia, in the assay with MALME-3M melanoma, in the assay on NCI/ADR-RES ovarian and in the assay with OVCAR-4 ovarian was > 100 µM throughout. In addition, the TGI in the assay on PC-3 prostate, with SK-MEL-28 melanoma and in the assay with SK-OV-3 ovarian was > 100 µM in each case.

Take `C/C(Cl)=N\OC(=O)Nc1ccc(C)cc1`: the TGI was 30.4 µM in the assay with CAKI-1 renal; 33.3 µM with COLO 205 colon; > 100 µM in the assay on K-562 leukemia; 31 µM in the assay on MALME-3M melanoma; 42.1 µM in the assay on NCI/ADR-RES ovarian; 32.9 µM in the assay with OVCAR-4 ovarian. The TGI in the assay on PC-3 prostate was 29.3 µM; with SK-MEL-28 melanoma, 28.1 µM; with SK-OV-3 ovarian it was 31.1 µM.

Regarding `CN1C(=O)N(C)C(O)C(Cl)(Br)C1=O` (stereo not drawn), the TGI with CAKI-1 renal, with COLO 205 colon, in the assay on K-562 leukemia, with MALME-3M melanoma, in the assay with NCI/ADR-RES ovarian and in the assay with PC-3 prostate was > 100 µM in each case. In addition, the TGI in the assay with SK-MEL-28 melanoma, with SK-OV-3 ovarian and with SR leukemia was > 100 µM each time.

Take `c1cncc(CC2(c3cc4ccccc4[nH]3)OCCO2)c1`: the TGI in the assay on CAKI-1 renal, in the assay with COLO 205 colon, in the assay on MALME-3M melanoma, with NCI/ADR-RES ovarian, with OVCAR-4 ovarian and with PC-3 prostate was > 100 µM throughout. In addition, the TGI in the assay on SK-MEL-28 melanoma, in the assay on SK-OV-3 ovarian and in the assay on SR leukemia was > 100 µM in each case.

With `COC(=O)C1C(C(=O)OC)C2(OC(c3ccc(Cl)cc3)=CC2=O)C12OC(c1ccc(Cl)cc1)=CC2=O` (stereo not drawn), the TGI stood at 59 µM with CAKI-1 renal; 34.6 µM in the assay with COLO 205 colon; 53.5 µM in the assay with K-562 leukemia; 31.6 µM with MALME-3M melanoma; 64.1 µM in the assay with OVCAR-4 ovarian; 55.8 µM with PC-3 prostate. The figures for the TGI in the assay with SK-MEL-28 melanoma, in the assay with SK-OV-3 ovarian and in the assay on SR leukemia were > 100 µM, > 100 µM and 10.9 µM, respectively.

Regarding `Nc1nc(Cl)cc(NCC2(O)CC2)n1`, the TGI with CAKI-1 renal, in the assay on K-562 leukemia, with MALME-3M melanoma, in the assay with NCI/ADR-RES ovarian, in the assay with OVCAR-4 ovarian and in the assay on PC-3 prostate was > 100 µM each time. In addition, the TGI with SK-MEL-28 melanoma, in the assay on SK-OV-3 ovarian and with SR leukemia was > 100 µM throughout.

Turning to `CC1C(NNc2ccccc2)Oc2cc3c(cc2C1c1ccccc1O)OCO3` (stereo not drawn), the TGI is 13.7 µM in the assay on CAKI-1 renal; 24.5 µM in the assay with COLO 205 colon; 4.34 µM in the assay on K-562 leukemia; 10.4 µM in the assay on MALME-3M melanoma; 21.5 µM with PC-3 prostate; 26.6 µM with SK-MEL-28 melanoma. For the same molecule, the TGI with SK-OV-3 ovarian came to 22.3 µM; in the assay on SR leukemia it was 11.6 µM.

The record behind these values is PubChem BioAssay (NCI).
